Data published in patent US20090076067A1, “PHARMACEUTICAL COMPOSITION COMPRISING AZARHODACYANINE COMPOUND AS ACTIVE INGREDIENT” (priority 2005, published 2009).
Like-named read-outs stand apart in the source and are kept apart here.

Columns and labels:
[1] = system: Trypanosoma brucei rhodensiense (STIB 900 strain); assay: African trypanosoma protozoa proliferation inhibition screening test; assay type: cell-based; conditions: for Selective toxicity: EC50 rat L6 cells / EC50 African trypanosoma protozoa; for EC50: Trypanosoma brucei, STIB900, read-out: EC50 Trypanosoma brucei rhod.; for EC50 / EC50 Trypanosoma brucei rhod.: STIB 900 bloodstream form, 72 hours, Alamar blue
Procedure: In this experiment, bloodstream form trypomastigote of Trypanosoma brucei rhodensiense (STIB 900 strain) was used. The medium used in the experiment was prepared as follows: to filter-sterilized MEM medium, 25 mM N-2-hydroxyethylpiperazine-2-ethane sulfonate (HEPES), 1 g/L glucose, 1% MEM nonessential amino acid, 0.2 mM 2-mercaptoethanol, 2 mM pyruvic calcium salt, 0.1 mM hypoxanthine, and 15% heat-treated horse serum were added. The protozoa was cultured under atmosphere of CO2 concentration 5% and temperature 37° C.
Either the compound of the invention or a positive control (melarsoprol) was dissolved into dimethylsulfoxide (DMSO) to prepare test solution having predefined concentration. To each well in a 96-well culture plate, medium containing 8×10^3 protozoa, and either test solution containing the test compound at predefined concentration or DMSO without compound was added. Then medium was added to achieve 100 μL. The test solution was duplicated.
The culture plate was cultured in an incubator for 72 hours, and the proliferation inhibition activity was examined. The activity was determined as follows. To each well, 10 μL Alamar blue water solution was added, then the plate was again cultured for 2 hours. Then the culture plate was mounted on a fluorescence microplate reader (Spectramax Gemeni XS; Molecular Devices Corporation, U.S.), and irradiated with 536 nm excitation wavelength to determine fluorescence at 588 nm. The trypanosoma infection rate of the sample containing the test composition and that of the control sample was calculated.
(§1) Using the protozoa infection rate thus obtained, the proliferation inhibition rate was calculated according to the following equation to determine 50% proliferation inhibition concentration (EC50).
(§2) Proliferation inhibition rate(%)={1−(b−a)/(c−a)}×100
a: initial infection rate b: infection rate of the test compound solution c: infection rate of the control

[2] = system: Leishmania donovani (MHOM/ET/67/L82 strain); assay: Leishmania protozoa proliferation inhibition screening test; assay type: cell-based; conditions: for Selective toxicity: EC50 rat L6 cells / EC50 leishmania protozoa; for EC50: Leishmania donovani, read-out: EC50 Leishmania donovani
Procedure: In this experiment, Leishmania donovani (MHOM/ET/67/L82 strain) was used. The protozoa were successively cultured in Syrian Golden hamsters to obtain amastigote. The medium used in the experiment was SM medium having heat-treated fetal bovine serum 10% added, and pH prepared to 5.4. The culture was conducted under CO2 concentration 5% and temperature 37° C.
Either the compound of the invention or a positive control (miltefosine) was dissolved into DMSO to prepare test solution having predefined concentration. To each well of a 96-well culture plate, medium containing predetermined number of protozoa was added and the culture was pre-treated. The concentration of amastigote was determined by CASY cell analyze system (Scharfe GMBH Co., Germany). Subsequently, either test solution containing compound of the invention in predefined concentration or DMSO without compound was added. The test solution was duplicated.
The plate was cultured in an incubator for 72 hours, and the proliferation inhibition activity was examined. The activity was determined as follows. To each well, 10 μL Alamar blue aqueous solution was added, then cultured again for 2 hours. Then the culture plate was mounted on a fluorescence microplate reader (Spectramax Gemeni XS; Molecular Devices Corporation, U.S), and irradiated 536 nm excitation wavelength to determine […] at 588 nm. The leishmania infection rate of the sample containing the test compound and that of the control sample was calculated.
as §1, §2
a: initial infection rate b: infection rate of test compound solution c: infection rate of the control

[3] = system: Plasmodium berghei NK 65 strain; assay: animal or person; assay type: in vivo; conditions: for Survival days (mean survival days, treatment group minus control group) / Recovery Rate (suppression): 4 days; for Recovery Rate (suppression): P. berghei infected ICR mice
[4] = amastigote, 72 hours, Alamar blue
[5] = Plasmodium berghei, ip, 96 h, read-out: Recovery Rate (suppression)
[6] = dose 25 mg/kg/d intraperitoneally

| SMILES | Selective toxicity [1] | EC50 [1] [µg/mL] | Selective toxicity [2] | EC50 [2, 4] [µg/mL] | inhibition in vivo at 10 mg/kg/day [3, 5] [%] | inhibition in vivo at 25 mg/kg/day [3, 5] [%] | Survival days (mean survival days, treatment group minus control group) [3, 6] [days] | EC50 Trypanosoma brucei rhod. [1] [µg/mL] | EC50 Leishmania donovani [2, 4] [µg/mL] | Recovery Rate (suppression) [3, 6] [%] | other results |
| --- | --- | --- | --- | --- | --- | --- | --- | --- | --- | --- | --- |
| CCN1C(=O)/C(=C2\Sc3ccccc3N2C)S/C1=N\c1sc2cc(Cl)ccc2[n+]1C [Compound A-1] | 94 | 0.403 | 299 | 0.127 | 54.1 | 62.7 | 2.0 |  |  |  |  |
| CCN1C(=O)/C(=C2\C=Cc3ccccc3N2C)S/C1=N\c1sc2cc(Cl)ccc2[n+]1C [Compound A-2] | 72 | 0.076 | 2800 | 0.002 | 54.6 |  |  |  |  |  |  |
| CCN1C(=O)/C(=c2/s/c(=C3/C=CC=CN3C)c(=O)n2CC)S/C1=N\c1sc2cc(Cl)ccc2[n+]1C [Compound B-2] | 258 | 0.104 |  | 0.249 | 79.8 | 97.1 | 19.3 |  |  |  | inhibition in vivo at 20 mg/kg/day [3, 5]: 97.4%; inhibition in vivo at 40 mg/kg/day [3, 5]: 99.1% |
| CCN1C(=O)/C(=c2/s/c(=C3/SCCN3C)c(=O)n2CC)S/C1=N\c1sc2cc(Cl)ccc2[n+]1C [Compound B-12] | 50 | 0.138 | 41 | 0.167 |  | 88.4 |  |  |  |  |  |
| CCN1C(=O)/C(=c2/s/c(=C3/C=CC=CN3C)c(=O)n2CC)S/C1=N\c1sc2cc(OC)ccc2[n+]1C [Compound B-28] |  |  |  |  |  |  |  | 0.042 | 0.037 | 98.3 |  |
| CCN1C(=O)/C(=c2/s/c(=C3/SCCN3C)c(=O)n2CC)S/C1=N\c1sc2cc(OC)ccc2[n+]1C [Compound B-29] |  |  |  |  |  |  |  | 0.023 | >0.04 | 95.0 |  |
| CCN1C(=O)/C(=c2/s/c(=C3/C=CC=CN3C)c(=O)n2CC)S/C1=N\c1sc2ccccc2[n+]1C [Compound B-30] |  |  |  |  |  |  | 16.0 | 0.0625 | 0.11 | 96.4 | Recovery Rate (suppression) ([3]; dose 10 mg/kg/d intraperitoneally): 70.8%; Recovery Rate (suppression) ([3]; dose 20 mg/kg/d intraperitoneally): 92.4%; Recovery Rate (suppression) ([3]; dose 40 mg/kg/d intraperitoneally): 97.8% |
| CCN1C(=O)/C(=c2/s/c(=C3/SCCN3C)c(=O)n2CC)S/C1=N\c1sc2cc(F)ccc2[n+]1C [Compound B-33] |  |  |  |  |  |  | 8.7 | 0.1485 | 0.2015 | 70.5 |  |
| CCn1c(=O)/c(=C2\SCCN2C)s/c1=C1\S/C(=N\c2sc3cc(Cl)ccc3[n+]2C)N(C(C)C)C1=O [Compound B-37] | 19 | 0.052 |  |  |  | 94.5 |  |  |  |  |  |
| CN1/C(=c2\s/c(=C\c3cccc[n+]3CCC(=O)O)n(CC3CO3)c2=O)Sc2ccccc21 (stereo not drawn) [Compound S-3, reference compound] | >15 | 6.1 | >170 |  |  |  |  |  |  |  | EC50 ([2]; 72 h): 0.53 µg/mL; inhibition in vivo at 5 mg/kg/day [3, 5]: 29.8%; Survival days (mean survival days, treatment group minus control group) ([3]; dose 5.0 mg/kg/d intraperitoneally): 0 days |
